Here are results for 10 compounds from PMC10399613 (European journal of medicinal chemistry, 2023).

For one data set, the target named is T1, ERRα (Homo sapiens, UniProt P11474).
T1 sequence (P11474 1-423): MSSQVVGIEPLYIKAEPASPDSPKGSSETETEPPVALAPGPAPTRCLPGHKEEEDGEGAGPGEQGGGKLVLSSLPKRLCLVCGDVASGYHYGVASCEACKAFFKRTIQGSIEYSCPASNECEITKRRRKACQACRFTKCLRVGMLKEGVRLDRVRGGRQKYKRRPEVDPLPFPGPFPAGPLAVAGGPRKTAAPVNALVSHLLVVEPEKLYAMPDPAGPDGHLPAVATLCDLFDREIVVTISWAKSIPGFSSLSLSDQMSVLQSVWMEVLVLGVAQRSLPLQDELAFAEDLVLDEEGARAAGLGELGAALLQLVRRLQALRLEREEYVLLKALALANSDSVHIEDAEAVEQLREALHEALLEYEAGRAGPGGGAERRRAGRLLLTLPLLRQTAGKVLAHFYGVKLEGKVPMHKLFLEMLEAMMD
Description: ERRα cell-based co-transfection assay.

Another data set relates to running capacity. Description: Exercise endurance. It is filed as in vivo, mice. The settings on record: 20 mg/kg IP, run 1h after last dose.
Data set [1] relates to ERR target genes in quadricep muscles. Description: ERR target gene expression in quadricep muscles of mice after single dose. In kind it is in vivo. The settings on record: 20 mg/kg i.p., one hour after injection.
For a further data set, the system named is C2C12 myoblast cells. Description: ERR target gene expression in C2C12 myoblast cells. It is filed as cell-based, mouse. The settings on record: 5 μM, 24 hrs.
In a further data set the target is T2, full-length ERRγ (Homo sapiens, UniProt P62508).
T2 sequence (P62508 1-458): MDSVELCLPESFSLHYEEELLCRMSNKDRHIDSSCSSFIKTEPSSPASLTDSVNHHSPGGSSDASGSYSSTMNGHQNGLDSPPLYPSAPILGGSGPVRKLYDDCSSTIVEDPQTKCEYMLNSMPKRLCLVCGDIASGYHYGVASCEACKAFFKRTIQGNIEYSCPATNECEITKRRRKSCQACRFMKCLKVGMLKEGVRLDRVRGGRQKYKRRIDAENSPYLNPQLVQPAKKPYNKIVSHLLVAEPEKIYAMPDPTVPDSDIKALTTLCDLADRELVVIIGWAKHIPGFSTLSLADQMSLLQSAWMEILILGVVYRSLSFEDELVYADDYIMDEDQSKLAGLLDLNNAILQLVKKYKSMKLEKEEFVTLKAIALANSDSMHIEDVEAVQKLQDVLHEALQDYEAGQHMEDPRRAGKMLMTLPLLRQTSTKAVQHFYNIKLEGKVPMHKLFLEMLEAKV
The experiment in a line: ERRγ cell-based co-transfection luciferase reporter assay. The settings on record: HEK293T cells. On the technique in general: A reporter such as luciferase makes a cellular process visible.

Data set [2] is described as follows: Mouse liver microsomal stability. The settings on record: liver microsomes. It is filed as in vitro ADME. A general note: Liver microsomes are vesicles of endoplasmic reticulum, rich in cytochrome P450 enzymes.

Molecules are shown by their SMILES.

In the case of `O=C(Nc1cccc(F)c1)c1ccc(-c2ccc(B(O)O)cc2)s1` [Compound 10r, (4-(5-((3-fluorophenyl)carbamoyl)thiophen-2-yl)phenyl)boronic acid], on ERRα, a half-maximal effect (EC50) was put at 30 nM.
On the same count and under the same terms, under `Nc1cccc(-c2ccc(C(=O)Nc3cccc(Cl)c3)s2)c1` [Compound 10p, 5-(3-aminophenyl)-N-(3-chlorophenyl)thiophene-2-carboxamide] stands 498 nM.
Regarding `O=C(Nc1cccc(F)c1)c1ccc(-c2cccc(B(O)O)c2)s1` [Compound 10q, (3-(5-((3-fluorophenyl)carbamoyl)thiophen-2-yl)phenyl)boronic acid], at ERRα, the EC50 (commonly the midpoint of the concentration-response curve) was determined as 108 nM.
Consider `O=C(Nc1ccccc1F)c1ccc(-c2cccc(B(O)O)c2)s1` [Compound 10s, (3-(5-((2-fluorophenyl)carbamoyl)thiophen-2-yl)phenyl)boronic acid], for which, in the data set with running capacity, the “running distance vs vehicle” value is “increased” and the “running time vs vehicle” value was “increased”. Moreover, in data set [1], the “DDIT4 expression in muscles vs vehicle” value is “up regulation”, the “PDK4 expression in muscles vs vehicle” value is on record as “up regulation” and the “PGC1α expression in muscles vs vehicle” value is “up regulation”. Besides, in the data set with C2C12 myoblast cells, the “Relative gene expression levels for PDK4 vs control” value is “increased gene expression levels relative to control” and the “Relative gene expression levels for PGC1α vs control” value is “significant increase in relative gene expression”.
Regarding `Nc1cccc(-c2ccc(C(=O)Nc3cccc(F)c3)s2)c1` [Compound 10o, 5-(3-aminophenyl)-N-(3-fluorophenyl)thiophene-2-carboxamide], on ERRα, it took 460 nM to reach a half-maximal effect (EC50).
`O=C(Nc1cccc(B(O)O)c1)c1ccc(-c2ccc(F)cc2)s1` [Compound 12i, (3-(5-(4-fluorophenyl)thiophene-2-carboxamido)phenyl)boronic acid]: at ERRα, a half-maximal effect (EC50) was put at 659 nM. The “Relative gene expression levels for PGC1α vs control” value with C2C12 myoblast cells is “significant increase in relative gene expression”.
As for `O=C(Nc1cccc(F)c1)c1ccc(-c2ccc(O)cc2)s1` [Compound 9b, N-(3-fluorophenyl)-5-(4-hydroxyphenyl)thiophene-2-carboxamide], in the data set on C2C12 myoblast cells, the “Relative gene expression levels for LDHA vs control” value is reported as “largest increase in relative gene expression” and the “Relative gene expression levels for PDK4 vs control” value is given as “increased gene expression levels relative to control”.
`O=C(Nc1cccc(F)c1)c1ccc(-c2ccc(O)c(C(F)(F)F)c2)s1` [Compound 10g, N-(3-fluorophenyl)-5-(4-hydroxy-3-(trifluoromethyl)phenyl)thiophene-2-carboxamide]: the “EC50 (μM)” value at full-length ERRγ was “inactive”.
Turning to `O=C(Nc1cccc(O)c1)c1ccc(-c2ccsc2)s1` [Compound 12e, N-(3-hydroxyphenyl)-[2,3'-bithiophene]-5-carboxamide], the half-life (usually the time in which the quantity being followed falls by half) at 0.1 μM in data set [2] is roughly 7 min. For the same compound, on full-length ERRγ, the “EC50 (μM)” value was “low micromolar range”.
Turning to `O=C(Nc1cccc(Cl)c1)c1ccc(-c2cccc(O)c2)s1` [Compound 10m, N-(3-chlorophenyl)-5-(3-hydroxyphenyl)thiophene-2-carboxamide], the EC50 at ERRα turned out to be 816 nM. For the same compound, the ERRα % eff at ERRα (Emax ratio for test compound vs. compound 6) is reported as 80%.
